This is an account of results in patent US20250066386A1, “INHIBITORS OF KRAS” (BIOMEA FUSION, INC., priority 2022, published 2025).

Like-named read-outs stand apart in the source and are kept apart here.

For data set [1] the following is noted: from CCn1c(-c2cccnc2[C@H](C)OC)c(CC(C)(C)OC(=O)C[C@@H]2CCCNC2)c2cc(-c3cccc(C[C@H](NC(=O)OCc4ccccc4)C(=O)O)c3)ccc21; amide bond; 18-membered ring; T3P/DIPEA; DCM; 32.3 mM; 25.0 °C; 1.0 h; 3 steps.
Data set [2] relates to human KRAS G12C mutated cell line MIA PaCa-2. The data set can be described thus: KRas G12C in vitro inhibitory activity: cell proliferation, CellTiter-Glo. It is filed as cell-based.
From the text: The present example evaluates the ability of compounds provided herein to inhibit proliferation of KRAS mutant cells.
The inhibitory effect on cell proliferation was investigated in the human KRAS G12C mutated cell line MIA PaCa-2 (Yunis et al., 1977, Int. J. Cancer 19(1):128-135; ATCC catalog no. CRL-1420). Cells were maintained in RPMI-1640 medium (ThermoFisher catalog no. 61870036) supplemented with 10% of Heat Inactivated FBS (ThermoFisher catalog no. A31605) and 1% Pen-Strep (ThermoFisher catalog no. 10378016) and cultured at 37° C. in a humidified incubator with 5% CO2. Cells were grown by adhering to culture flasks, and maintained at 70%-80% confluency.
ATP is present in all metabolically active cells and is considered as a marker for viable cells. The number of metabolically active live cells in culture was determined using the CellTiter-Glo kit (Promega catalog no. G7572), an ATP monitoring system based on the production of luminescence by the reaction of ATP with added UltraGlo® recombinant luciferase (Kawano et al., 2016, PLOS One, 8; 11(7):e0158888), according to the supplier's experimental recommendations. The cell proliferation assay was based on a 96 well plate format.
Test compounds were dissolved at 10 mM in DMSO (Sigma catalog no. D8418; purity >99.9%) and stored at −20° C. Eight concentrations of test compound were assessed in duplicate in an individual test occasion in parallel in the selected cell lines. MRTX-849 and AMG-510 were used as reference compounds and tested in duplicate at eight concentrations. 100% of proliferation is represented by the untreated cells (0.2% DMSO).
On the day of the experiment (TO), cells were detached with TrypLE (ThermoFisher catalog no. 12604054), quantified using the cell viability analyser NucleoCounter (Chemometec NC-200) and resuspended in fresh medium at a cell density of about 5000 cells per 200 μL medium. 200 μL of cell suspension were added to each well of a 96 well plate.
Two hours after seeding cells, compounds were added at desired concentrations using a D300e compound dispenser (Life Sciences Tecan D300) with shaking after each compound addition. Assay plates were incubated at 37° C. in a humidified incubator with 5% CO2.
(§1) To measure 3 day inhibition of cell proliferation on day 3 (T3), assay plates were equilibrated to room temperature for approximately 15 min, and the Promega CellTiterGlo® reagent was added at 40 μL/well. Contents were mixed for 5 min on an orbital shaker to induce cell lysis, and then incubated at room temperature for an additional 10 min in the dark to stabilize the luminescent signal. Luminescence was read using a GloMax GM300 plate reader (Promega) using the luminescence for 96 well plate standard protocol.
as §1, with “measure 7” for “measure 3”, “(T3), 150 μL of growth media was removed from each well of the assay plates and replaced with 150 uL fresh growth media, and fresh compounds added using a D300e compound dispenser (Life Sciences Tecan D300) at desired concentrations with shaking between each compound addition. Assay plates were incubated at 37° C. in a humidified incubator with 5% CO2. On day 7 (T7)” for “(T3),”
Data was expressed as % of inhibition compared to the 0.2% DMSO negative no drug control, and is calculated as follows: % inhibition=100−[(RLU sample)×100/(RLU average controls*)], where * indicates the average for 0.2% DMSO.
Results were analyzed by GraphPad (Prism) and IC50 values were calculated by non-linear regression using four parameter-logistic equation. […]
Background: ATP-based viability assays read luminescence as a measure of living cells.

Setting [3] is: Homo sapiens, MIA PaCa-2, 72 h, 3 day inhibition of cell proliferation, CellTiter-Glo luminescence, read-out: MIA PaCa-2 Day 3 IC50.
Setting [4] is: Homo sapiens, MIA PaCa-2, 7 day inhibition of cell proliferation, medium and compound renewed on day 3, CellTiter-Glo luminescence, read-out: MIA PaCa-2 Day 7 IC50.

In data set [1], `CCn1c(-c2cccnc2[C@H](C)OC)c2c3cc(ccc31)-c1cccc(c1)C[C@H](NC(=O)OCc1ccccc1)C(=O)N1CCC[C@@H](CC(=O)OC(C)(C)C2)C1` came in with a ring closure, isolated yield of 44%.

Turning to `C=CC(=O)N1CC[C@H](C(=O)N(C)[C@H](C(=O)N[C@H]2Cc3cccc(c3)-c3ccc4c(c3)c(c(-c3cccnc3[C@H](C)OC)n4CC)CC(C)(C)n3cc(nn3)[C@@H]3CCCN(N3)C2=O)C(C)C)C1` [Compound 104, (3S)-1-acryloyl-N-((2S)-1-(((6^3S,8S,Z)-21-ethyl-2^2-(2-((S)-1-methoxyethyl)pyridin-3-yl)-4,4-dimethyl-7-oxo-6^1,6^2,6^3,6^4,6^5,6^6-hexahydro-2^1H,5^1H-2(5,3)-indola-6(3,1)-pyridazina-5(1,4)-triazola-1(1,3)-benzenacyclononaphane-8-yl)amino)-3-methyl-1-oxobutan-2-yl)-N-methylpyrrolidine-3-carboxamide], in data set [2] (setting [3]), the IC50 – broadly, the point on the concentration scale where inhibition reaches its midpoint – is more than 0.1 µM.

As for `CCn1c(-c2cccnc2[C@H](C)OC)c2c3cc(ccc31)-c1csc(n1)C[C@H](NC(=O)[C@H](C(C)C)N(C)C(=O)N1[C@H](C)CN(CC#CC(=O)N(C)C)C[C@H]1C)C(=O)N1CCC[C@H](N1)C(=O)OCC(C)(C)C2` [Compound 105, (2R,6R)-4-(4-(dimethylamino)-4-oxobut-2-yn-1-yl)-N-((2S)-1-(((6^3S,4S,Z)-1^1-ethyl-1^2-(2-((S)-1-methoxyethyl)pyridin-3-yl)-10,10-dimethyl-5,7-dioxo-6^1,6^2,6^3,6^4,6^5,6^6-hexahydro-1^1H-8-oxa-2(4,2)-thiazola-1(5,3)-indola-6(1,3)-pyridazinacycloundecaphane-4-yl)amino)-3-methyl-1-oxobutan-2-yl)-N,2,6-trimethylpiperazine-1-carboxamide], the IC50 in data set [2] (setting [3]) and in data set [2] (setting [4]) was 0.01 to 0.1 µM in each case.

For the compound `CCn1c(-c2cccnc2[C@H](C)OC)c2c3cc(ccc31)-c1csc(n1)C[C@H](NC(=O)[C@H](C(C)C)N(C)C(=O)[C@H]1CCN(CC#CC(=O)N(C)C)C1)C(=O)N1CCC[C@H](N1)C(=O)OCC(C)(C)C2` (atropisomer, axis not shown) [Compound 113, (3S)-1-(4-(dimethylamino)-4-oxobut-2-yn-1-yl)-N-((2S)-1-(((6^3S,4S,Z)-1^1-ethyl-1^2-(2-((S)-1-methoxyethyl)pyridin-3-yl)-10,10-dimethyl-5,7-dioxo-6^1,6^2,6^3,6^4,6^5,6^6-hexahydro-1^1H-8-oxa-2(4,2)-thiazola-1(5,3)-indola-6(1,3)-pyridazinacycloundecaphane-4-yl)amino)-3-methyl-1-oxobutan-2-yl)-N-methylpyrrolidine-3-carboxamide], the IC50 in data set [2] (setting [3]) was less than 0.001 µM.

As for `CCn1c(-c2cccnc2[C@H](C)OC)c2c3cc(ccc31)-c1csc(n1)C[C@H](NC(=O)[C@H](C(C)C)N(C)C(=O)[C@H]1CCN(CC#CC(=O)N3CC(F)(F)C3)C1)C(=O)N1CCC[C@H](N1)C(=O)OCC(C)(C)C2` (atropisomer, axis not shown) [Compound 117, (3S)-1-(4-(3,3-difluoroazetidin-1-yl)-4-oxobut-2-yn-1-yl)-N-((2S)-1-(((6^3S,4S,Z)-1^1-ethyl-1^2-(2-((S)-1-methoxyethyl)pyridin-3-yl)-10,10-dimethyl-5,7-dioxo-6^1,6^2,6^3,6^4,6^5,6^6-hexahydro-1^1H-8-oxa-2(4,2)-thiazola-1(5,3)-indola-6(1,3)-pyridazinacycloundecaphane-4-yl)amino)-3-methyl-1-oxobutan-2-yl)-N-methylpyrrolidine-3-carboxamide], the figures for the IC50 in data set [2] (setting [3]) and in data set [2] (setting [4]) were more than 0.1 µM and 0.001 to 0.01 µM, respectively.

Take `CCn1c(-c2cccnc2[C@H](C)OC)c2c3cc(ccc31)-c1cccc(c1)C[C@H](NC(=O)[C@H](C(C)C)N(C)C(=O)[C@H]1CCN(C(=O)C#CCN3CCOCC3)C1)C(=O)N1CCC[C@@H](CC(=O)OC(C)(C)C2)C1` [Compound 107]: the IC50 in data set [2] (setting [4]) is more than 0.1 µM.

Take `CCn1c(-c2cccnc2[C@H](C)OC)c2c3cc(ccc31)-c1cccc(c1)C[C@H](NC(=O)[C@H](C(C)C)N(C)C(=O)[C@H]1CCN(C(=O)C#CCN3CCOCC3)C1)C(=O)N1CCC[C@@H](CC(=O)OC(C)(C)C2)C1` [Compound 106, (3S)—N-((2S)-1-(((6^3S,4S)-1^1-ethyl-1^2-(2-((S)-1-methoxyethyl)pyridin-3-yl)-10,10-dimethyl-5,8-dioxo-1^1H-9-oxa-1(5,3)-indola-6(1,3)-piperidina-2(1,3)-benzenacycloundecaphane-4-yl)amino)-3-methyl-1-oxobutan-2-yl)-N-methyl-1-(4-morpholinobut-2-ynoyl)pyrrolidine-3-carboxamide]: the IC50 in data set [2] (setting [3]) is more than 0.1 µM.

Take `CCn1c(-c2cccnc2[C@H](C)OC)c2c3cc(ccc31)-c1cccc(c1)C[C@H](NC(=O)[C@H](C(C)C)N(C)C(=O)C1CCN(CC#CC(=O)N(C)C)CC1)C(=O)N1CCC[C@H](N1)C(=O)OCC(C)(C)C2` (atropisomer, axis not shown) [Compound 109, 1-(4-(dimethylamino)-4-oxobut-2-yn-1-yl)-N-((2S)-1-(((6^3S,4S)-1^1-ethyl-1^2-(2-((S)-1-methoxyethyl)pyridin-3-yl)-10,10-dimethyl-5,7-dioxo-6^1,6^2,6^3,6^4,6^5,6^6-hexahydro-1^1H-8-oxa-1(5,3)-indola-6(1,3)-pyridazina-2(1,3)-benzenacycloundecaphane-4-yl)amino)-3-methyl-1-oxobutan-2-yl)-N-methylpiperidine-4-carboxamide]: the IC50 in data set [2] (setting [3]) lay within 0.001 to 0.01 µM.

Take `CCn1c(-c2cccnc2[C@H](C)OC)c2c3cc(ccc31)-c1cccc(c1)C[C@H](NC(=O)[C@H](C(C)C)N(C)C(=O)[C@H]1CCN(C(=O)C#CCN3CCOCC3)C1)C(=O)N1CCC[C@H](CC(=O)OC(C)(C)C2)C1` [Compound 108, (3S)—N-((2S)-1-(((6^3R,4S)-1^1-ethyl-1^2-(2-((S)-1-methoxyethyl)pyridin-3-yl)-10,10-dimethyl-5,8-dioxo-1^1H-9-oxa-1(5,3)-indola-6(1,3)-piperidina-2(1,3)-benzenacycloundecaphane-4-yl)amino)-3-methyl-1-oxobutan-2-yl)-N-methyl-1-(4-morpholinobut-2-ynoyl)pyrrolidine-3-carboxamide]: in data set [2] (setting [3]), the IC50 was more than 0.1 µM.

With `CCn1c(-c2cccnc2[C@H](C)OC)c2c3cc(ccc31)-c1cccc(c1)C[C@H](NC(=O)[C@H](C(C)C)N(C)C(=O)[C@H]1CCN(C(=O)C#CCN3CCOCC3)C1)C(=O)N1CCC[C@H](C1)C(=O)OCC(C)(C)C2` (atropisomer, axis not shown) [Compound 2, (3S)—N-((2S)-1-(((6^3R,4S)-1^1-ethyl-1^2-(2-((S)-1-methoxyethyl)pyridin-3-yl)-10,10-dimethyl-5,7-dioxo-1^1H-8-oxa-1(5,3)-indola-6(1,3)-piperidina-2(1,3)-benzenacycloundecaphane-4-yl)amino)-3-methyl-1-oxobutan-2-yl)-N-methyl-1-(4-morpholinobut-2-ynoyl)pyrrolidine-3-carboxamide], the IC50 in data set [2] (7 day inhibition of cell proliferation, medium and compound renewed on day 3, CellTiter-Glo luminescence, read-out: MIA PaCa-2 Day 7 IC50) was more than 0.1 µM; in data set [2] (setting [3]) it was more than 0.1 µM.
